Test results from ChEMBL document CHEMBL2417421, “Biotransformation of ent-pimaradienoic acid by cell cultures of Aspergillus niger” (2013).

test system: Aorta; experiment: Antispasmodic activity in rat aorta assessed as inhibition of phenylephrine-induced aorta contraction at 100 uM after 60 mins relative to control; type: functional; details: 1 h

Structure (SMILES)	inhibition at 100 µM
C=C[C@]1(C)C=C2CC[C@H]3[C@@](C)(CCC[C@@]3(C)C(=O)O)[C@@H]2CC1	73.2%
C=C[C@]1(C)C=C2[C@H](O)C[C@H]3[C@@](C)(CCC[C@@]3(C)C(=O)O)[C@@H]2CC1	16.8%
C=C[C@]1(C)C=C2C=C[C@H]3[C@](C)([C@@H]2CC1)[C@@H](O)CC[C@@]3(C)C(=O)O	12.5%
C=C[C@@]1(C)CC[C@@H]2C(=C[C@H](O)[C@H]3[C@@]2(C)[C@H](O)CC[C@@]3(C)C(=O)O)[C@H]1O	0%
C=C[C@]1(C)C=C2[C@@H](O)[C@H](O)[C@H]3[C@@](C)([C@H](O)CC[C@@]3(C)C(=O)O)[C@@H]2[C@@H](O)C1	0%
C=C[C@@]1(C)CC[C@@H]2C(=CC[C@H]3[C@@]2(C)CCC[C@@]3(C)C(=O)O)C1	50.8%
C=C[C@]1(C)C=C2C(=O)C[C@H]3[C@@](C)(CCC[C@@]3(C)C(=O)O)[C@@H]2CC1	61.5%
C=C[C@]1(C)C=C2[C@@H](CC1)[C@]1(C)CCC[C@@](C)(C(=O)OC)[C@H]1C[C@@H]2O	82.5%
C=C[C@]1(C)C=C2CC[C@@H]3[C@](C)(CO)CCC[C@@]3(C)[C@@H]2CC1	58.8%
C=C[C@]1(C)C=C2CC[C@H]3[C@@](C)(CCC[C@@]3(C)C(=O)OC)[C@@H]2CC1	10.5%
